The record followed here is ChEMBL document CHEMBL1201862, “PubChem BioAssay data set” (2004).

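Five concentrations, 48 hours, 96-well plates. GI50 is the concentration that inhibits growth by half.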 Activity calls are given as the source filed them. No stated cut-off is given here; in the data, active = GI50 up to about 1.1 µM and inactive = higher. Bounds are passed on as bounds.

Assay in all cases: NCI anticancer screen, dose series, 48 h
The test system of experiment [1] is T47D.
For experiment [2], the system named is RXF 393.
For experiment [3], the system named is K562.
Experiment [4] deals with HOP-62.
For experiment [5], the system named is IGROV-1.
In experiment [6] the test system is SW-620.
The test system of experiment [7] is HOP-92.
In experiment [8] the test system is DU-145.
For experiment [9], the system named is UO-31.
For experiment [10], the system named is HCT-15.
The test system of experiment [11] is NCI-H23.
Experiment [12] deals with UACC-257.
The subject of experiment [13] is U-251.
The test system of experiment [14] is HL-60.
The test system of experiment [15] is MDA-MB-435.
The subject of experiment [16] is BT-549.
The test system of experiment [17] is NCI-H226.
The subject of experiment [18] is EKVX.
The test system of experiment [19] is KM12.
For experiment [20], the system named is NCI-H522.

Take `CC1=NN(c2nc(N)nc(/C(C#N)=C/c3ccncc3)n2)C(C)(C)C1`: the GI50 in experiment [1] was > 100 µM (inactive); in experiment [2], 32 µM (inactive); in experiment [3], 13.5 µM (inactive); in [4], > 100 µM (inactive); in experiment [5], > 100 µM (inactive); in [6] it was > 100 µM (inactive). The GI50 is > 100 µM (inactive) in experiment [7]; 47.4 µM (inactive) in [8]; > 100 µM (inactive) in experiment [9]; above 100 µM in [10]; > 100 µM (inactive) in experiment [11]; > 100 µM (inactive) in [12]. Besides, the GI50 is > 100 µM (inactive) in [13]; 52.1 µM (inactive) in experiment [14]; > 100 µM (inactive) in experiment [15]; > 100 µM (inactive) in experiment [16]; > 100 µM (inactive) in experiment [17]; > 100 µM (inactive) in [18]. For the same compound, in [19], the GI50 is > 100 µM (inactive).
Regarding `CCOC(=O)c1c(CN2CCCC2)n(-c2ccccc2)c2cc(Br)c(O)cc12`, the GI50 was 20.7 µM (inactive) in experiment [1]; 12.4 µM (inactive) in experiment [2]; 18.3 µM (inactive) in experiment [3]; 13.3 µM (inactive) in experiment [4]; 16.8 µM (inactive) in experiment [5]; 17.7 µM (inactive) in [6]. Besides, the GI50 in experiment [7] was 20 µM (inactive); in experiment [8], 19.6 µM (inactive); in [9], 12.1 µM (inactive); in experiment [10] it was 20.8 µM; in experiment [11] it was 19.3 µM (inactive); in experiment [20], 17.1 µM (inactive). Further, the GI50 is 17.5 µM (inactive) in experiment [12]; 16.3 µM (inactive) in [13]; 9.44 µM (inactive) in [14]; 18 µM (inactive) in experiment [15]; 36.1 µM (inactive) in experiment [16]; 17 µM (inactive) in experiment [18]. The GI50 in experiment [19] is 16.8 µM (inactive).
As for `Fc1cccc(F)c1C1SCC2=Nc3ccccc3CN21` (stereo not drawn), the GI50 in experiment [1] is 49.7 µM (inactive); in experiment [2] it was 23.9 µM (inactive); in experiment [3] it was 92.3 µM (inactive); in experiment [4] it was 20.8 µM (inactive); in [5], 42.5 µM (inactive); in [6], > 100 µM (inactive). The GI50 was 71.8 µM (inactive) in [7]; 60 µM (inactive) in [8]; 96.6 µM (inactive) in experiment [9]; above 100 µM in [10]; 39.8 µM (inactive) in experiment [11]; 60.3 µM (inactive) in [12]. Besides, the GI50 in experiment [13] is > 100 µM (inactive); in experiment [14], 44.2 µM (inactive); in experiment [15] it was > 100 µM (inactive); in experiment [16] it was 98.6 µM (inactive); in experiment [18], 79.6 µM (inactive); in [19] it was 54 µM (inactive).
With `NC(=O)C(=Cn1c(=S)[nH]c2ccc([N+](=O)[O-])cc21)C(N)=O`, the GI50 in [1], in experiment [2], in [4], in experiment [5], in experiment [6] and in experiment [7] was > 100 µM (inactive) each time. Besides, the GI50 in experiment [8] is > 100 µM (inactive); in experiment [9], > 100 µM (inactive); in [10] it was above 100 µM; in experiment [11], > 100 µM (inactive); in experiment [12], > 100 µM (inactive); in [13], > 100 µM (inactive). Besides, the GI50 in [14] is > 100 µM (inactive); in experiment [15], > 100 µM (inactive); in [16] it was > 100 µM (inactive); in experiment [17], 28.8 µM (inactive); in [18] it was 19.7 µM (inactive); in experiment [19], > 100 µM (inactive).
Turning to `C=C1[C@@H](OC(C)=O)/C=C/C2C3C(=O)[C@@](C)(OC(C)=O)[C@H]([C@H](OC(C)=O)[C@]4(O)[C@@H](C)C(=O)O[C@H]4[C@H]1Cl)[C@@]23C` (stereo partly drawn), the GI50 in experiment [1], in experiment [2], in experiment [3], in [4], in [5] and in experiment [6] was > 100 µM (inactive) throughout. The GI50 was > 100 µM (inactive) in [7]; > 100 µM (inactive) in [8]; > 100 µM (inactive) in experiment [9]; above 100 µM in experiment [10]; > 100 µM (inactive) in [11]; > 100 µM (inactive) in [20]. Also, the GI50 in [12], in experiment [13], in experiment [15], in experiment [16], in experiment [17] and in experiment [18] was > 100 µM (inactive) in each case. In addition, the GI50 in experiment [19] was > 100 µM (inactive).
For `CC1C2(C)OC(=N)C(C#N)(C(c3ccccc3)O2)C1(C#N)C#N` (stereo not drawn), the GI50 in experiment [1] was 20 µM (inactive); in [2], 30.3 µM (inactive); in experiment [3], 25.1 µM (inactive); in [5], 33.8 µM (inactive); in experiment [6], > 10 µM (inactive); in [7], 12.6 µM (inactive). Besides, the GI50 was 31.3 µM (inactive) in experiment [8]; 39.8 µM (inactive) in [9]; 10.9 µM in experiment [10]; 28.2 µM (inactive) in experiment [11]; 25.2 µM (inactive) in experiment [12]; 18.7 µM (inactive) in [13]. Also, the GI50 in experiment [14] is 16.6 µM (inactive); in [15], 33.3 µM (inactive); in [16], 42.3 µM (inactive); in experiment [17], > 100 µM (inactive); in experiment [18], 21.4 µM (inactive); in experiment [19], 51.5 µM (inactive).
On to `Cc1[nH]c2c(c1C)S(=O)(=O)c1cc3ccccc3nc1N2`, for which the GI50 in [1] was > 100 µM (inactive); in [2] it was 19.3 µM (inactive); in [3], 10.9 µM (inactive); in experiment [4], 18.2 µM (inactive); in experiment [5], 10.1 µM (inactive); in experiment [6] it was 40.4 µM (inactive). Moreover, the GI50 in experiment [7] is 25.4 µM (inactive); in experiment [8], 24.9 µM (inactive); in experiment [9] it was 21.6 µM (inactive); in [10], 22.1 µM; in experiment [11] it was 23.9 µM (inactive); in [20] it was 21.4 µM (inactive). The GI50 in experiment [12] is 35.9 µM (inactive); in [13] it was 11.2 µM (inactive); in experiment [15], 26.4 µM (inactive); in [16] it was 69.8 µM (inactive); in [17], 22 µM (inactive); in experiment [18], 36.7 µM (inactive). For the same compound, the GI50 in experiment [19] is 27.9 µM (inactive).
As for `NC(=O)SCC(=O)Nc1ccc2cccc3c2c1CC3`, the GI50 in experiment [1] is 21.9 µM (inactive); in experiment [2], 26 µM (inactive); in experiment [3], 12.8 µM (inactive); in experiment [4], 52.1 µM (inactive); in experiment [5], > 100 µM (inactive); in experiment [6], 12.2 µM (inactive). Further, the GI50 in experiment [7] is 0.596 µM (active); in experiment [8] it was > 100 µM (inactive); in [9] it was 41.2 µM (inactive); in experiment [10] it was 16.6 µM; in experiment [11], 23.7 µM (inactive); in [20], > 100 µM (inactive). Also, the GI50 in [12] is 21.1 µM (inactive); in [13], 5.33 µM (inactive); in experiment [14] it was 3.9 µM (inactive); in experiment [15], 17.4 µM (inactive); in experiment [16], 16.2 µM (inactive); in experiment [18], > 100 µM (inactive). Moreover, the GI50 in experiment [19] is 36.7 µM (inactive).
Take `N/C(COc1ccc(Cl)cc1)=N\NC(=O)c1ccncc1`: the GI50 in [1] was 62.4 µM (inactive); in experiment [2] it was 35.9 µM (inactive); in experiment [3], > 100 µM (inactive); in [4], > 100 µM (inactive); in [5] it was > 100 µM (inactive); in experiment [6] it was > 100 µM (inactive). Further, the GI50 in experiment [7] is 58.9 µM (inactive); in [8], > 100 µM (inactive); in [10], 55.6 µM; in experiment [11], > 100 µM (inactive); in [20] it was > 100 µM (inactive); in [12], 72.4 µM (inactive). Also, the GI50 is > 100 µM (inactive) in experiment [13]; > 100 µM (inactive) in experiment [14]; > 100 µM (inactive) in experiment [15]; > 100 µM (inactive) in experiment [16]; 76.2 µM (inactive) in [18]; > 100 µM (inactive) in experiment [19].
Turning to `CC1=C(SCc2ccccc2)C(=O)c2ccccc2C1=O`, the GI50 in experiment [1] was 3.18 µM (inactive); in experiment [2] it was 16.6 µM (inactive); in experiment [3] it was 3.05 µM (inactive); in experiment [4] it was 17.3 µM (inactive); in [5], 12 µM (inactive); in experiment [6], 19.9 µM (inactive). The GI50 in experiment [7] is 4.72 µM (inactive); in experiment [8] it was 19.8 µM (inactive); in [10], 18.5 µM; in experiment [11], 17.9 µM (inactive); in [12] it was 16.1 µM (inactive); in [13], 16.8 µM (inactive). The GI50 is 3.73 µM (inactive) in experiment [14]; 14.6 µM (inactive) in experiment [15]; 16.7 µM (inactive) in experiment [16]; 19.1 µM (inactive) in [18]; 18.5 µM (inactive) in experiment [19].
As for `Clc1ccc(-c2nn3c(CCCCCCCCc4nnc5sc(-c6ccc(Cl)cc6)nn45)nnc3s2)cc1`, the GI50 is 4.67 µM (inactive) in experiment [1]; 14.9 µM (inactive) in experiment [2]; 20 µM (inactive) in experiment [3]; 26.4 µM (inactive) in [4]; 22.8 µM (inactive) in experiment [5]; 29.2 µM (inactive) in experiment [6]. For the same compound, the GI50 in experiment [7] is 31 µM (inactive); in [8] it was 11.7 µM (inactive); in [9] it was 12.6 µM (inactive); in [10], 26.3 µM; in experiment [11] it was 27.1 µM (inactive); in [20] it was 7.91 µM (inactive). In addition, the GI50 in experiment [12] is 12.3 µM (inactive); in experiment [13] it was 15.9 µM (inactive); in [15] it was 17 µM (inactive); in experiment [16] it was 24.8 µM (inactive); in experiment [17] it was 25.6 µM (inactive); in experiment [18], 20 µM (inactive). Moreover, the GI50 in experiment [19] was 11.9 µM (inactive).
